“Also recorded” adds a separate entry of the source.
How the values were obtained:
in vitro [1] = settings: Mesocricetus auratus (hamster)
WNV [2] = tested on: WNV
WNV [3] = assay: microbe, parasite or virus in culture; settings: West Nile virus, BHK, read-out: WNV EC50
DENV-2 [4] = tested on: DENV-2
DENV-2 [5] = assay: microbe, parasite or virus in culture; settings: Dengue virus, DENV2, BHK, read-out: DENV-2 EC50
YFV [6] = format: cell-based, Yellow Fever Virus
in vitro [7] = settings: Cercopithecus aethiops (monkey), Vero76 CC50
RSV [8] = assay: microbe, parasite or virus in culture; settings: human respiratory syncytial virus, Vero 76, read-out: RSV EC50
YFV [9] = assay: microbe, parasite or virus in culture; settings: Yellow fever virus, BHK, read-out: YFV EC50
RSV [10] = tested on: RSV
HSV-1 = assay: microbe, parasite or virus in culture; format: cell-based, human herpesvirus 1; settings: Human alphaherpesvirus 1, Vero 76, read-out: HSV-1 EC50
Sb-1 = assay: microbe, parasite or virus in culture; format: cell-based, Poliovirus type-1, Sabin strain; settings: Enterovirus C, Vero 76, read-out: Sb-1 EC50
YFV [11] = tested on: YFV
VV = assay: microbe, parasite or virus in culture; format: cell-based; settings: Orthopoxvirus vaccinia, Vero 76, read-out: VV EC50
VSV = assay: microbe, parasite or virus in culture; format: cell-based; settings: Vesicular stomatitis virus, Vero 76, read-out: VSV EC50
CVB-5 = assay: microbe, parasite or virus in culture; format: cell-based, Coxsackievirus B5; settings: Enterovirus B, Vero 76, read-out: CVB-5 EC50
in vitro [12] = settings: Bos taurus (cattle)
in vitro [13] = settings: human
HIV-1 = assay: microbe, parasite or virus in culture; settings: Human immunodeficiency virus 1, MT4, read-out: HIV-1 EC50
BVDV [14] = tested on: BVDV
BVDV [15] = assay: microbe, parasite or virus in culture; settings: Bovine viral diarrhea virus isolates and strains, MDBK, read-out: BVDV EC50
Reo-1 = format: cell-based, reovirus type-1

Row | SMILES | CC50 (in vitro [1]) | CC50 (in vitro [7]) | EC50 (RSV [8]) | EC50 (YFV [9]) | SI CC50/EC50 (RSV) (RSV [10]) | EC50 (HSV-1) | EC50 (Sb-1) | SI CC50/EC50 (YFV) (YFV [11]) | EC50 (VV) | EC50 (VSV) | melting point | EC50 (CVB-5) | CC50 (in vitro [12]) | CC50 (in vitro [13]) | also measured
1 | Brc1ccc(NCc2cn(-c3ccccc3)nc2-c2ccc(Br)cc2)cc1 [1g] | > 100 µM | – | – | – | – | – | – | – | – | – | – | – | – | – | SI CC50/EC50 (WNV) (WNV [2]): >1.25; EC50 (WNV [3]): 80 ± 8.5 µM; SI CC50/EC50 (DENV-2) (DENV-2 [4]): >4.3; EC50 (DENV-2 [5]): 23 ± 6 µM
2 | Clc1ccc(NCc2cn(-c3ccccc3)nc2-c2ccc(Cl)cc2)cc1 [1i] | 73 ± 1 µM | – | – | – | – | – | – | – | – | – | – | – | – | – | SI CC50/EC50 (WNV) (WNV [2]): 1.3; EC50 (WNV [3]): 57.5 ± 0.5 µM; SI CC50/EC50 (DENV-2) (DENV-2 [4]): 5.0; EC50 (DENV-2 [5]): 14.5 ± 3.5 µM
3 | Cc1ccc(NCc2cn(-c3ccccc3)nc2-c2ccc(Cl)cc2)cc1 [1n] | > 100 µM | – | – | – | – | – | – | – | – | – | – | – | – | – | SI CC50/EC50 (WNV) (WNV [2]): >2.6; EC50 (WNV [3]): 39 ± 1 µM; SI CC50/EC50 (DENV-2) (DENV-2 [4]): >9.0; EC50 (DENV-2 [5]): 11.1 ± 1.6 µM
4 | Cc1ccc(NCc2cn(-c3ccccc3)nc2-c2ccc(C(F)(F)F)cc2)cc1 [1o] | 88 ± 0.5 µM | – | – | – | – | – | – | – | – | – | – | – | – | – | SI CC50/EC50 (WNV) (WNV [2]): 1.5; EC50 (WNV [3]): 59 ± 1.1 µM; SI CC50/EC50 (DENV-2) (DENV-2 [4]): 6.2; EC50 (DENV-2 [5]): 14.3 ± 0.7 µM
5 | O=c1cnn([C@@H]2O[C@H](CO)[C@@H](O)[C@H]2O)c(=O)[nH]1 [6-Azauridine, reference compound] | > 100 µM | 9.3 ± 1.6 µM | 1.3 ± 0.3 µM | 46 ± 1.5 µM | 7.2 | – | – | – | – | – | – | – | – | – | Effect on YFV titer, compound added post infection (YFV [6]): lost its effectiveness when added after the infection; Effect on YFV titer, compound present in pre-treatment or during infection (YFV [6]): reduced the YFV titer when present in the pre-treatment or during the 2 h of infection
6 | O=S(=O)(c1ccccc1)n1cc(CNc2ccc(Cl)cc2)c(-c2ccccc2)n1 [7b, 4-Chloro-N-[(3-phenyl-1-(phenylsulphonyl)-1H-pyrazol-4-yl)methyl]aniline] | > 100 µM | – | – | 8.1 ± 1.3 µM | – | > 80 µM | > 80 µM | >12.3 | > 80 µM | > 80 µM | 136 to 137 °C | 20 ± 5 µM | > 100 µM | > 100 µM | –
7 | O=S(=O)(c1ccccc1)n1cc(CNc2ccc(Br)cc2)c(-c2ccccc2)n1 [7c, 4-Bromo-N-[(3-phenyl-1-(phenylsulfonyl)-1H-pyrazol-4-yl)methyl]aniline] | > 100 µM | – | > 3 µM | 5.9 ± 0.2 µM | – | > 85 µM | > 85 µM | >16.9 | > 85 µM | > 85 µM | 122 °C | 24 ± 11 µM | > 100 µM | 20 µM | EC50 (HIV-1): > 20 µM
8 | O=S(=O)(c1ccccc1)n1cc(CNc2ccccc2)c(-c2ccc(Br)cc2)n1 [7e, N-[(3-(4-Bromophenyl)-1-(phenylsulfonyl)-1H-pyrazol-4-yl)methyl]aniline] | > 100 µM | 87 ± 1 µM | 17.8 ± 1.8 µM | 3.6 ± 0.8 µM | 4.9 | > 87 µM | > 87 µM | >27.8 | > 87 µM | > 87 µM | 110 to 111 °C | > 87 µM | > 100 µM | > 100 µM | SI CC50/EC50 (BVDV) (BVDV [14]): >5.1; Effect on YFV titer, compound added post infection (YFV [6]): achieved the highest reduction of virus titer when added 2 h post infection and maintained up to 4 h post infection; also recorded: retained its inhibitory activity when added at any time p.i; also recorded: highest reduction of virus yield was observed when 7e was added 2 h post infection and maintained up to 4 h post infection; Effect on YFV titer, compound present in pre-treatment or during infection (YFV [6]): reduced the YFV titer when present in the pre-treatment or during the 2 h of infection; EC50 (HIV-1): 20 ± 2.4 µM; EC50 (BVDV [15]): 19.5 ± 2.1 µM
9 | O=S(=O)(c1ccccc1)n1cc(CNc2ccc(Cl)cc2)c(-c2ccc(Br)cc2)n1 [7f, 4-Chloro-N-[(3-(4-bromophenyl)-1-(phenysulfonyl)-1H-pyrazol-4-yl)methyl]aniline] | > 100 µM | 90 ± 2 µM | 15.3 ± 2.5 µM | 4 ± 0.7 µM | 5.9 | > 90 µM | > 90 µM | >25.0 | > 90 µM | > 90 µM | 137 to 138 °C | > 90 µM | > 100 µM | > 100 µM | –
10 | O=S(=O)(c1ccccc1)n1cc(CNc2ccc(Br)cc2)c(-c2ccc(Br)cc2)n1 [7g, 4-Bromo-N-[(3-(4-bromophenyl)-1-(phenylsulfonyl)-1H-pyrazol-4-yl)methyl]aniline] | > 100 µM | 90 ± 1 µM | 15.8 ± 2 µM | 6.2 ± 0.5 µM | 5.7 | > 90 µM | > 90 µM | >16.1 | > 90 µM | > 90 µM | 150 to 151 °C | > 90 µM | > 100 µM | > 100 µM | –
11 | Cc1ccc(NCc2cn(S(=O)(=O)c3ccccc3)nc2-c2ccc(Br)cc2)cc1 [7h, 4-Methyl-N-[(3-(4-bromophenyl)-1-(phenylsulfonyl)-1H-pyrazol-4-yl)methyl]aniline] | > 100 µM | 93 ± 0.5 µM | 12.5 ± 2.5 µM | 4.9 ± 0.9 µM | 7.4 | > 93 µM | > 93 µM | >20.4 | > 93 µM | > 93 µM | 112 °C | > 93 µM | > 100 µM | > 100 µM | –
12 | O=S(=O)(c1ccccc1)n1cc(CNc2ccc(Cl)cc2)c(-c2ccc(Cl)cc2)n1 [7j, 4-Cloro-N-[(3-(4-chlorophenyl)-1-(phenylsulfonyl)-1H-pyrazol-4-yl)methyl]aniline] | > 100 µM | > 100 µM | 8.5 ± 0.5 µM | 4.4 ± 0.4 µM | >11.8 | – | – | >22.7 | – | – | 142 to 143 °C | – | > 100 µM | > 100 µM | SI CC50/EC50 (BVDV) (BVDV [14]): >2.3; EC50 (BVDV [15]): 43.3 ± 1.1 µM
13 | COc1ccc(S(=O)(=O)n2cc(CNc3ccc(Br)cc3)c(-c3ccc(Cl)cc3)n2)cc1 [8g, 4-Bromo-N-[(3-(4-chlorophenyl)-1-((4-methoxyphenyl)sulfonyl)-1H-pyrazol-4-yl)methyl]aniline] | > 100 µM | > 100 µM | – | 18.6 ± 0.8 µM | – | – | – | >5.4 | – | – | 169 to 171 °C | – | > 100 µM | > 100 µM | SI CC50/EC50 (BVDV) (BVDV [14]): >8.1; EC50 (BVDV [15]): 12.4 ± 0.8 µM
14 | Nc1nc2c(ncn2COCCO)c(=O)[nH]1 [ACG, Acyclovir, reference compound] | – | > 100 µM | – | – | – | 2.9 ± 0.1 µM | – | – | – | – | – | – | – | – | –
15 | COc1c(C)c2c(c(O)c1C/C=C(\C)CCC(=O)O)C(=O)OC2 [M 5255, Mycophenolic acid, reference compound] | – | 20 ± 0.3 µM | – | – | – | – | – | – | 2 ± 0.1 µM | – | – | – | – | – | –
16 | C[C@@]1(O)[C@H](O)[C@@H](CO)O[C@H]1n1ccc(N)nc1=O [NM107, 2′-C-methylcitidine] | – | – | – | – | – | – | – | – | – | – | – | – | – | – | EC50 (Reo-1): 7.5 ± 1.5 µM; CC50 (BHK-21 cells): > 100 µM
17 | C[C@@]1(O)[C@H](O)[C@@H](CO)O[C@H]1n1cnc2c(=O)[nH]c(N)nc21 [NM 108, 2′-C-methylguanosin, reference compound] | 60 ± 3 µM | – | – | – | – | – | – | – | – | – | – | – | – | – | SI CC50/EC50 (WNV) (WNV [2]): 85.7; EC50 (WNV [3]): 0.7 ± 0.2 µM; SI CC50/EC50 (DENV-2) (DENV-2 [4]): 50.0; EC50 (DENV-2 [5]): 1.2 ± 0.1 µM
18 | Cc1cc(CCCOc2c(C)cc(-c3noc(C(F)(F)F)n3)cc2C)on1 [Pleconaril, reference compound] | – | 70 ± 1 µM | – | – | – | – | 2 ± 0.1 µM | – | – | – | – | 0.0025 ± 0.0005 µM | – | – | –
19 | NC(=O)c1ncn([C@@H]2O[C@H](CO)[C@@H](O)[C@H]2O)n1 [Ribavirin, reference compound] | – | > 100 µM | 37.5 ± 2.5 µM | – | >2.7 | – | – | – | – | – | – | – | 55 ± 7 µM | – | SI CC50/EC50 (BVDV) (BVDV [14]): 3.4; EC50 (BVDV [15]): 16 ± 2 µM

Reference: PMC6465675, “Design, Synthesis, Antiviral Evaluation, and SAR Studies of New 1-(Phenylsulfonyl)-1H-Pyrazol−4-yl-Methylaniline Derivatives” (Frontiers in Chemistry, 2019)
